Drawing on patent publication US20060276498A1 (Wyeth, priority 2005, published 2006), this text covers IC50 for 34 compounds.

SMILES strings stand for the structures. A value given as a limit tells only on which side of the number the result lay.

One assay deals with T1, human Cot/Tpl2 kinase (Homo sapiens, UniProt P41279).
T1 construct: human Cot/Tpl2 kinase construct encoding residues 30-398; 6His (N); made in house; host or cells: Sf9 insect cells (baculovirus system, BD Biosciences)
T1 sequence (P41279 30-398): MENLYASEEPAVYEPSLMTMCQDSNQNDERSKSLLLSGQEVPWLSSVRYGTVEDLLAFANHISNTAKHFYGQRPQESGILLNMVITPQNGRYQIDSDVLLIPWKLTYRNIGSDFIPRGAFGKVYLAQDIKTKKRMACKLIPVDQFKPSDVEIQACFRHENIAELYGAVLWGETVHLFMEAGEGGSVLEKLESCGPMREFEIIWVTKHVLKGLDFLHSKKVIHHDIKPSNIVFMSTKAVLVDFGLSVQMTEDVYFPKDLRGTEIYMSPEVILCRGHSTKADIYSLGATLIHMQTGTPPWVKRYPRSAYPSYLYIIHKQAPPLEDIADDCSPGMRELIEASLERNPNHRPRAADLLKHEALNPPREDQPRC
Description: Tpl2/Cot kinase assay, GST-MEK1 phosphorylation detected by ELISA (DELFIA Eu). It counts as biochemical. To be noted: Table 1; 0.4 nM Tpl2, 35 nM GST-MEK1, 50 uM ATP, 1 h at 30° C. The protocol: Sf9 cells expressing the kinase were lysed in 50 mM NaPhosphate pH=8; 300 mM NaCl; 5 mM imidazole; 0.1 mM EGTA; 25 mM beta-glycerophosphate; 1% TX-100, 1% glycerol; 6 mM beta-mercaptoethanol and protease inhibitors. The lysate was clarified by centrifugation and was loaded onto a Ni-Sepharose column. The column was washed with 50 mM NaPhosphate pH=8; 300 mM NaCl; 15 mM imidazole; 1% glycerol; and 6 mM beta-mercaptoethanol. His-Tpl2 was eluted with 50 mM NaPhosphate pH=8; 300 mM NaCl; 250 mM imidazole; 1% glycerol; and 6 mM beta-mercaptoethanol. The eluted protein was further purified by size exclusion chromatography. Fractions corresponding to monomeric Tpl2 were then used in the assay.
Tpl2/Cot activity was directly assayed using GST-MEK1 as a substrate. GST-MEK1 phosphorylation on serine residues 217 and 221 was detected by ELISA. 0.4 nM Tpl2 was incubated with 35 nM GST-MEK1 in a kinase reaction buffer containing 20 mM MOPS pH=7.2; 50 uM ATP; 20 mM MgCl2; 1 mM DTT; 25 mM β-glycerophosphate; 5 mM EGTA; and 1 mM sodium orthovanadate for 1 h at 30° C. The compounds of the inventions solubilized in 100% DMSO were pre-diluted in assay buffer so that the final concentration of DMSO in the reaction was 1%. The kinase reaction was carried out in 100 ul volume on 96 well plates. The kinase reaction was then stopped with the addition of 100 mM EDTA. […] After a 1 hour incubation at room temperature, the detection plate was washed 4 times with TBST (TBS+0.05% Tween 20) and then incubated for another hour at room temperature with anti phospho-MEK1 antibody (Cell Signaling) 1:1000 in 10 mM MOPS 7.5; 150 mM NaCl; 0.05% Tween 20; 0.1% Gelatin; 0.02% NaN3; and 1% BSA. The detection plate was washed again and incubated for 30 min with DELFIA Europium (Eu) labeled goat anti-rabbit IgG (Perkin-Elmer), 1:4000 in the same buffer used for the primary incubation. After a final wash, Eu detection solution was added to each well and the Eu signal was measured in a Wallac Victor^2 Multilabel Counter. IC50 calculations were preformed using the XLfit software package (IDBS, Guildford, UK).
A general note: In an ELISA, binding on a coated surface is turned into a signal by an enzyme label.
In general, IC50 refers to the concentration that inhibits the measured activity by half. Read a high IC50 as weaker potency. Compound `Cc1ccc(Nc2c(C#N)cnc3cnc(NCCN4CCOCC4)cc23)cc1Br` [Example 64, 4-[(3-bromo-4-methylphenyl)amino]-6-[(2-morpholin-4-ylethyl)amino]-1,7-naphthyridine-3-carbonitrile] registered an IC50 above 40 µM. `Cc1ccc(Nc2c(C#N)cnc3cnc(N[C@H](C)c4ccccc4)cc23)cc1Br` [Example 65] gave a 50% inhibitory concentration (IC50) of 6.2 µM. That is a single-digit micromolar value.

`N#Cc1cnc2cnc(Nc3ccc(F)c(Cl)c3)cc2c1NC1CCCC1` [Example 92, 6-(3-chloro-4-fluorophenylamino)-4-(cyclopentylamino)-1,7-naphthyridine-3-carbonitrile] showed an IC50 of 8 µM. The compound `CN(C)CCCNc1cc2c(Nc3ccc(Cc4ccccc4)cc3)c(C#N)cnc2cn1` [Example 21, 4-(4-benzylphenylamino)-6-(3-(dimethylamino)propylamino)-1,7-naphthyridine-3-carbonitrile] displayed a half-inhibitory concentration (IC50) of 0.0096 µM. The same measure, in the same setting: the result for `C[C@@H](Nc1cc2c(Nc3ccc(F)c(Cl)c3)c(C#N)cnc2cn1)[C@@H](O)c1ccccc1` [Example 53, 4-[(3-chloro-4-fluorophenyl)amino]-6-{[(1R, 2S)-2-hydroxy-1-methyl-2-phenylethyl]amino}-1,7-naphthyridine-3-carbonitrile] reads 7 µM.

For the compound `N#Cc1cnc2cnc(NCCN3CCOCC3)cc2c1Nc1ccc(-c2ccccc2)cc1` [Example 87, 4-(1,1′-biphenyl-4-ylamino)-6-[(2-morpholin-4-ylethyl)amino]-1,7-naphthyridine-3-carbonitrile], the concentration for half-maximal inhibition (IC50) is above 40 µM. In turn, `N#Cc1cnc2cnc(NC3CCCC3)cc2c1Nc1ccc(F)c(Cl)c1` [Example 94, 4-(3-Chloro-4-fluoro-phenylamino)-6-cyclopentylamino-[1,7]naphthyridine-3-carbonitrile] displayed an IC50 of 7.6 µM. Turning to `N#Cc1cnc2cnc(NCc3ccccc3)cc2c1Nc1ccc(F)c(Cl)c1` [Example 47, 6-(benzylamino)-4-[(3-chloro-4-fluorophenyl)amino]-1,7-naphthyridine-3-carbonitrile], half-maximal inhibition (IC50) was put at 0.1 µM. Consider `N#Cc1cnc2cnc(NCc3cccnc3)cc2c1Nc1cccc(OC(F)(F)F)c1` [Example 32, 6-(pyridin-3-ylmethylamino)-4-(3-(trifluoromethoxy)phenylamino)-1,7-naphthyridine-3-carbonitrile], for which the IC50 was above 40 µM. Still for that read-out and setting: for `N#Cc1cnc2cnc(N[C@@H]3CCc4ccccc43)cc2c1Nc1ccc(F)c(Cl)c1` [Example 73] the value was 0.43 µM. Consider `N#Cc1cnc2cnc(NCCN3CCOCC3)cc2c1Nc1cc(Cl)cc(Cl)c1` [Example 67, 4-[(3,5-dichlorophenyl)amino]-6-[(2-morpholin-4-ylethyl)amino]-1,7-naphthyridine-3-carbonitrile], for which the 50% inhibitory concentration (IC50) is 4.2 µM. This IC50 is about 9.8-fold higher than that of the compound before. Consider `N#Cc1cnc2cnc(NCc3cccnc3)cc2c1Nc1ccc(Cl)c(Cl)c1` [Example 63, 4-[(3,4-dichlorophenyl)amino]-6-[(pyridin-3-ylmethyl)amino]-1,7-naphthyridine-3-carbonitrile], for which the IC50 was above 40 µM. The same measure, in the same setting: for `C[C@@H](Nc1cc2c(Nc3ccc(F)c(Cl)c3)c(C#N)cnc2cn1)c1ccccc1` [Example 59, 4-[(3-chloro-4-fluorophenyl)amino]-6-{[(1R)-1-phenylethyl]amino}-1,7-naphthyridine-3-carbonitrile] the value was 0.012 µM; for `CS(=O)(=O)Nc1cccc(Nc2c(C#N)cnc3cnc(NCCN4CCOCC4)cc23)c1` [Example 85, N-(3-(3-cyano-6-(2-morpholinoethylamino)-1,7-naphthyridin-4-ylamino)phenyl)methanesulfonamide], above 10 µM. `N#Cc1cnc2cnc(NCCN3CCOCC3)cc2c1Nc1cccc(C(=O)O)c1` [Example 84, 3-(3-cyano-6-(2-morpholinoethylamino)-1,7-naphthyridin-4-ylamino)benzoic acid] displayed an IC50 above 10 µM.

The assay is the same for the next values; noted with them: Table 2; additional representative compounds.
`N#Cc1cnc2cnc(F)cc2c1Nc1ccc2[nH]ccc2c1` [Example 102, 6-fluoro-4-(1H-indol-5-ylamino)-1,7-naphthyridine-3-carbonitrile] gave an IC50 above 40 µM. `N#Cc1cnc2cnc(NCc3cccnc3)cc2c1NC1CC1` [Example 111, 4-(cyclopropylamino)-6-[(pyridin-3-ylmethyl)amino]-1,7-naphthyridine-3-carbonitrile] yielded an IC50 of 2.8 µM. That is a single-digit micromolar value. `N#Cc1cnc2cnc(F)cc2c1Nc1ccc(Cc2ccccc2)cc1` [Example 106, 4-[(4-benzylphenyl)amino]-6-fluoro-1,7-naphthyridine-3-carbonitrile] showed an IC50 of 0.3 µM. With `COc1ccc(CNc2cc3c(Nc4ccc(F)c(Cl)c4)c(C#N)cnc3cn2)cc1` [Example 96, 4-[(3-chloro-4-fluorophenyl)amino]-6-[(4-methoxybenzyl)amino]-1,7-naphthyridine-3-carbonitrile], the IC50 was determined as 0.2 µM. The IC50 values of the last two compounds are within 1.5-fold of each other. Regarding `CCC(C)(C)Nc1c(C#N)cnc2cnc(F)cc12` [Example 141, 4-[(1,1-dimethylpropyl)amino]-6-fluoro-1,7-naphthyridine-3-carbonitrile], the IC50 was above 40 µM. The compound `CC(C)c1cccc(Nc2c(C#N)cnc3cnc(F)cc23)c1` [Example 97, 6-fluoro-4-[(3-isopropylphenyl)amino]-1,7-naphthyridine-3-carbonitrile] had a 50% inhibitory concentration (IC50) above 40 µM. With `N#Cc1cnc2cnc(NCc3cccnc3)cc2c1NC1CCNCC1` [Example 116, 4-(piperidin-4-ylamino)-6-[(pyridin-3-ylmethyl)amino]-1,7-naphthyridine-3-carbonitrile], the IC50 is above 40 µM. With `CC(C)(C)Nc1c(C#N)cnc2cnc(NCc3cccnc3)cc12` [Example 110, 4-(tert-butylamino)-6-[(pyridin-3-ylmethyl)amino]-1,7-naphthyridine-3-carbonitrile], the half-inhibitory concentration (IC50) stood at 0.63 µM. `CN(c1ccc(F)c(Cl)c1)c1c(C#N)cnc2cnc(F)cc12` [Example 107, 4-[(3-chloro-4-fluorophenyl)(methyl)amino]-6-fluoro-1,7-naphthyridine-3-carbonitrile]: the IC50 was above 10 µM. `N#Cc1cnc2cnc(F)cc2c1Nc1ccc(Oc2ccccc2)cc1` [Example 99, 6-Fluoro-4-(4-phenoxy-phenylamino)-[1,7]naphthyridine-3-carbonitrile]: the IC50 stood at 20 µM. As for `COc1ccccc1CNc1cc2c(Nc3ccc(F)c(Cl)c3)c(C#N)cnc2cn1` [Example 124, 4-[(3-chloro-4-fluorophenyl)amino]-6-[(2-methoxybenzyl)amino]-1,7-naphthyridine-3-carbonitrile], it took 0.37 µM to reach half-maximal inhibition (IC50). Compared with the last compound, the IC50 is about 54-fold lower. The same measure, in the same setting: for `N#Cc1cnc2cnc(NCc3cccnc3)cc2c1NC1CCCC1` [Example 112, 4-(cyclopentylamino)-6-[(pyridin-3-ylmethyl)amino]-1,7-naphthyridine-3-carbonitrile] the value was 0.32 µM; for `CN(c1c(C#N)cnc2cnc(F)cc12)C1CCCCCC1` [Example 136, 4-[cycloheptyl(methyl)amino]-6-fluoro-1,7-naphthyridine-3-carbonitrile], 0.36 µM. As to `N#Cc1cnc2cnc(F)cc2c1Nc1cccc([N+](=O)[O-])c1` [Example 105, 6-fluoro-4-[(3-nitrophenyl)amino]-1,7-naphthyridine-3-carbonitrile], the half-inhibitory concentration (IC50) is above 10 µM. Regarding `CS(=O)(=O)c1ccc(CNc2cc3c(Nc4ccc(F)c(Cl)c4)c(C#N)cnc3cn2)cc1` [Example 125, 4-[(3-chloro-4-fluorophenyl)amino]-6-{[4-(methylsulfonyl)benzyl]amino}-1,7-naphthyridine-3-carbonitrile], it took 0.023 µM to reach half-maximal inhibition (IC50). `N#Cc1cnc2cnc(NCc3cccnc3)cc2c1NC1CCCCC1` [Example 114, 4-(cyclohexylamino)-6-[(pyridin-3-ylmethyl)amino]-1,7-naphthyridine-3-carbonitrile]: the IC50 worked out at 0.47 µM. Still for that read-out and setting: for `CN(C)CCNc1cc2c(Nc3ccc(Cc4ccccc4)cc3)c(C#N)cnc2cn1` [Example 108, 4-[(4-benzylphenyl)amino]-6-{[2-(dimethylamino)ethyl]amino}-1,7-naphthyridine-3-carbonitrile] the value was above 10 µM; for `CCN1CCC[C@H]1CNc1cc2c(NC3CCCC3)c(C#N)cnc2cn1` [Example 129, 4-(cyclopentylamino)-6-({[(2S)-1-ethylpyrrolidin-2-yl]methyl}amino)-1,7-naphthyridine-3-carbonitrile], 2.8 µM. On the same count and under the same terms, the result for `N#Cc1cnc2cnc(F)cc2c1Nc1ccc(OC(F)(F)F)cc1` [Example 128, 6-fluoro-4-{[4-(trifluoromethoxy)phenyl]amino}-1,7-naphthyridine-3-carbonitrile] reads above 40 µM.
